Source: ChEMBL document CHEMBL1201862, “PubChem BioAssay data set” (2004)
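Results reflect a 48-hour exposure of cells in 96-well plates to compound at five concentrations. GI50 marks 50% less growth.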 Calls of active or inactive are those of the source. Cut-off read from the data, not from the text of the source: active = GI50 up to about 1.1 µM and inactive = higher.

What was measured:
Assay in all cases: NCI anticancer screen, dose series, 48 h
TK-10 = system: TK-10
NCI-H522 = system: NCI-H522
MDA-MB-231 = system: MDA-MB-231
HL-60 = system: HL-60
NCI-H23 = system: NCI-H23
IGROV-1 = system: IGROV-1
HCT-15 = system: HCT-15
OVCAR-3 = system: OVCAR-3
MDA-MB-435 = system: MDA-MB-435
SR = system: SR
HOP-92 = system: HOP-92
RXF 393 = system: RXF 393
SK-OV-3 = system: SK-OV-3
OVCAR-5 = system: OVCAR-5
NCI-H226 = system: NCI-H226
Hs-578T = system: Hs-578T
RPMI-8226 = system: RPMI-8226
K562 = system: K562
HCT-116 = system: HCT-116
KM12 = system: KM12
LOX IMVI = system: LOX IMVI
SF-268 = system: SF-268
HOP-62 = system: HOP-62
ACHN = system: ACHN
Malme-3M = system: Malme-3M
A549 = system: A549
T47D = system: T47D
HT-29 = system: HT-29
786-0 = system: 786-0
A498 = system: A498
SK-MEL-28 = system: SK-MEL-28
SNB-19 = system: SNB-19
NCI/ADR-RES = system: NCI/ADR-RES
MOLT-4 = system: MOLT-4
NCI-H460 = system: NCI-H460
PC-3 = system: PC-3
DU-145 = system: DU-145
SW-620 = system: SW-620
SNB-75 = system: SNB-75
OVCAR-8 = system: OVCAR-8
SF-295 = system: SF-295
COLO 205 = system: COLO 205
OVCAR-4 = system: OVCAR-4
M14 = system: M14
EKVX = system: EKVX
SK-MEL-5 = system: SK-MEL-5
HCC 2998 = system: HCC 2998
CAKI-1 = system: CAKI-1
CCRF-CEM = system: CCRF-CEM
UACC-62 = system: UACC-62
UACC-257 = system: UACC-257
U-251 = system: U-251
SK-MEL-2 = system: SK-MEL-2
UO-31 = system: UO-31
SN12C = system: SN12C
MCF7 = system: MCF7
MDA-N = system: MDA-N
SF-539 = system: SF-539

## COc1cc(OC)cc(Oc2nc3ccccc3nc2C(=O)O)c1
TK-10
  GI50: > 100 µM (inactive)
NCI-H522
  GI50: > 100 µM (inactive)
MDA-MB-231
  GI50: > 100 µM (inactive)
HL-60
  GI50: > 100 µM (inactive)
NCI-H23
  GI50: > 100 µM (inactive)
IGROV-1
  GI50: > 100 µM (inactive)
HCT-15
  GI50: > 100 µM
OVCAR-3
  GI50: > 100 µM (inactive)
MDA-MB-435
  GI50: > 100 µM (inactive)
SR
  GI50: > 100 µM (inactive)
HOP-92
  GI50: > 100 µM (inactive)
RXF 393
  GI50: > 100 µM (inactive)
SK-OV-3
  GI50: > 100 µM (inactive)
OVCAR-5
  GI50: > 100 µM (inactive)
NCI-H226
  GI50: > 100 µM (inactive)
Hs-578T
  GI50: > 100 µM (inactive)
RPMI-8226
  GI50: > 100 µM (inactive)
K562
  GI50: > 100 µM (inactive)
HCT-116
  GI50: > 100 µM (inactive)
KM12
  GI50: > 100 µM (inactive)
LOX IMVI
  GI50: > 100 µM (inactive)
SF-268
  GI50: > 100 µM (inactive)
HOP-62
  GI50: > 100 µM (inactive)
ACHN
  GI50: > 100 µM (inactive)
Malme-3M
  GI50: > 100 µM (inactive)
A549
  GI50: > 100 µM (inactive)
T47D
  GI50: > 100 µM (inactive)
HT-29
  GI50: > 100 µM (inactive)
786-0
  GI50: > 100 µM (inactive)
A498
  GI50: > 100 µM (inactive)
SK-MEL-28
  GI50: > 100 µM (inactive)
SNB-19
  GI50: > 100 µM (inactive)
NCI/ADR-RES
  GI50: > 100 µM (inactive)
MOLT-4
  GI50: > 100 µM (inactive)
NCI-H460
  GI50: > 100 µM (inactive)
PC-3
  GI50: > 100 µM (inactive)
DU-145
  GI50: > 100 µM (inactive)
SW-620
  GI50: > 100 µM (inactive)
SNB-75
  GI50: > 100 µM (inactive)
OVCAR-8
  GI50: > 100 µM (inactive)
SF-295
  GI50: > 100 µM (inactive)
COLO 205
  GI50: > 100 µM (inactive)
OVCAR-4
  GI50: 0.6 µM (active)
M14
  GI50: > 100 µM (inactive)
EKVX
  GI50: > 100 µM (inactive)
SK-MEL-5
  GI50: > 100 µM (inactive)
HCC 2998
  GI50: > 100 µM (inactive)
CAKI-1
  GI50: > 100 µM (inactive)
CCRF-CEM
  GI50: > 100 µM (inactive)
UACC-62
  GI50: > 100 µM (inactive)
UACC-257
  GI50: > 100 µM (inactive)
U-251
  GI50: > 100 µM (inactive)
SK-MEL-2
  GI50: > 100 µM (inactive)
UO-31
  GI50: > 100 µM (inactive)

## CC1(C)NC(C(=O)c2ccccc2)=[N+]([O-])C1(O)c1ccccc1 (configuration not stated)
TK-10
  GI50: > 100 µM (inactive)
MDA-MB-231
  GI50: > 100 µM (inactive)
HL-60
  GI50: > 100 µM (inactive)
NCI-H23
  GI50: > 100 µM (inactive)
IGROV-1
  GI50: > 100 µM (inactive)
HCT-15
  GI50: 81.3 µM
OVCAR-3
  GI50: 95.3 µM (inactive)
MDA-MB-435
  GI50: > 100 µM (inactive)
SR
  GI50: > 100 µM (inactive)
HOP-92
  GI50: > 100 µM (inactive)
RXF 393
  GI50: > 100 µM (inactive)
SK-OV-3
  GI50: > 100 µM (inactive)
OVCAR-5
  GI50: > 100 µM (inactive)
NCI-H226
  GI50: > 100 µM (inactive)
Hs-578T
  GI50: > 100 µM (inactive)
RPMI-8226
  GI50: > 100 µM (inactive)
K562
  GI50: > 100 µM (inactive)
HCT-116
  GI50: 74.5 µM (inactive)
KM12
  GI50: > 100 µM (inactive)
LOX IMVI
  GI50: > 100 µM (inactive)
SF-268
  GI50: > 100 µM (inactive)
HOP-62
  GI50: > 100 µM (inactive)
ACHN
  GI50: > 100 µM (inactive)
Malme-3M
  GI50: > 100 µM (inactive)
SN12C
  GI50: > 100 µM (inactive)
A549
  GI50: > 100 µM (inactive)
T47D
  GI50: > 100 µM (inactive)
HT-29
  GI50: > 100 µM (inactive)
786-0
  GI50: > 100 µM (inactive)
SK-MEL-28
  GI50: > 100 µM (inactive)
SNB-19
  GI50: > 100 µM (inactive)
NCI/ADR-RES
  GI50: > 100 µM (inactive)
MOLT-4
  GI50: > 100 µM (inactive)
NCI-H460
  GI50: > 100 µM (inactive)
PC-3
  GI50: > 100 µM (inactive)
DU-145
  GI50: > 100 µM (inactive)
SW-620
  GI50: > 100 µM (inactive)
SNB-75
  GI50: > 100 µM (inactive)
OVCAR-8
  GI50: > 100 µM (inactive)
SF-295
  GI50: > 100 µM (inactive)
COLO 205
  GI50: > 100 µM (inactive)
MCF7
  GI50: > 100 µM (inactive)
OVCAR-4
  GI50: > 100 µM (inactive)
M14
  GI50: > 100 µM (inactive)
EKVX
  GI50: > 100 µM (inactive)
SK-MEL-5
  GI50: 93.3 µM (inactive)
HCC 2998
  GI50: > 100 µM (inactive)
CAKI-1
  GI50: > 100 µM (inactive)
CCRF-CEM
  GI50: > 100 µM (inactive)
UACC-62
  GI50: > 100 µM (inactive)
UACC-257
  GI50: 54.5 µM (inactive)
U-251
  GI50: > 100 µM (inactive)
SK-MEL-2
  GI50: > 100 µM (inactive)
MDA-N
  GI50: > 100 µM (inactive)
SF-539
  GI50: > 100 µM (inactive)
UO-31
  GI50: 69.8 µM (inactive)

## COc1cc(/C=C2\CN(C)CC3=C2N=C(S)NC3c2cc(OC)c(OC)c(OC)c2)cc(OC)c1OC (configuration not stated)
NCI-H522
  GI50: 54.7 µM (inactive)
MDA-MB-231
  GI50: 61.9 µM (inactive)
IGROV-1
  GI50: 71.8 µM (inactive)
HCT-15
  GI50: 80.2 µM
OVCAR-3
  GI50: > 100 µM (inactive)
SR
  GI50: > 100 µM (inactive)
HOP-92
  GI50: > 100 µM (inactive)
SK-OV-3
  GI50: > 100 µM (inactive)
Hs-578T
  GI50: 30.5 µM (inactive)
LOX IMVI
  GI50: 36.2 µM (inactive)
SF-268
  GI50: 94.4 µM (inactive)
HOP-62
  GI50: 69.7 µM (inactive)
ACHN
  GI50: 91.2 µM (inactive)
Malme-3M
  GI50: > 100 µM (inactive)
SN12C
  GI50: 67.9 µM (inactive)
A549
  GI50: 49.9 µM (inactive)
T47D
  GI50: > 100 µM (inactive)
HT-29
  GI50: 67.9 µM (inactive)
786-0
  GI50: 39.2 µM (inactive)
NCI/ADR-RES
  GI50: > 100 µM (inactive)
MOLT-4
  GI50: 57.4 µM (inactive)
NCI-H460
  GI50: 54.5 µM (inactive)
PC-3
  GI50: 38.3 µM (inactive)
DU-145
  GI50: > 100 µM (inactive)
SW-620
  GI50: > 100 µM (inactive)
SNB-75
  GI50: 28.6 µM (inactive)
OVCAR-8
  GI50: 83.2 µM (inactive)
SF-295
  GI50: 65.5 µM (inactive)
COLO 205
  GI50: 79.8 µM (inactive)
OVCAR-4
  GI50: 56 µM (inactive)
M14
  GI50: 51.2 µM (inactive)
EKVX
  GI50: 32.6 µM (inactive)
SK-MEL-5
  GI50: 17.9 µM (inactive)
UACC-62
  GI50: 20.9 µM (inactive)
UACC-257
  GI50: > 100 µM (inactive)
SK-MEL-2
  GI50: > 100 µM (inactive)
MDA-N
  GI50: 50.2 µM (inactive)
